Source: patent US20250145600A1, “2-((4-((S)-2-(4-CHLORO-2-FLUOROPHENYL)-2-METHYLBENZO[D][1,3]DIOXOL-4-YL)PIPERIDIN-1-YL)METHYL)-1-(((S)-OXETAN-2-YL)METHYL)-1H-IMIDAZOLE DERIVATIVES AS ACTIVATORS OF THE GLP1 RECEPTOR FOR THE TREATMENT OF OBESITY” (Novartis AG, priority 2022, published 2025)

Target: human GLP1R (Homo sapiens, UniProt P43220)
Test: Human GLP1R DERET internalization assay
Type: cell-based
Conditions: HEK293-SNAP-hGLP1R-GloSensor cells
Experimental: Compounds of formula (I) according to the invention were tested in the following cellular assays that measure the intracellular cAMP concentration, beta-arrestin recruitment and receptor internalization. The cAMP is generated by the activation of GLP1R. The extent to which the GLP1R is internalized into the cell and away from the plasma membrane following activation is also shown in Table 2. EC50 for each assay is defined as the concentration of the compound that leads to half of the maximum response (after baseline correction). Emax is defined as the maximum response observed for the test compound, normalized to the maximum response observed for the endogenous ligand (GLP1(7-36)) to GLP1R.
Human GLP1R DERET Internalization Assay
The extent to which agonists internalize the human GLP1R was determined based on an optimized version of a RealTime FRET-based ‘DERET’ (Dissociation Enhanced Resonance Energy Transfer) assay. The technology relies on labeling of the SNAP-tagged GPCR with a SNAP-Lumi-Terbium (donor fluorophore, Cisbio, cat #SSNPTBD). The compounds are incubated with the cells over-expressing the GPCR of interest in the presence of an excess of fluorescein (acceptor fluorophore). When the GPCR is on the cell surface, the donor signal is quenched by the acceptor and the donor/acceptor ratio is low. As the GPCR internalizes, the donor signal is no longer quenched, and the acceptor is no longer excited so the donor/acceptor ratio increases.
HEK293-SNAP-hGLP1R-GloSensor cells (stably overexpressing SNAP-tagged hGLP1R) were seeded overnight in white 384-well poly-D-Lysine coated plates (Greiner Bio One, cat #781945) in regular DMEM growth medium (Gibco, cat #11965-092, 10% heat-inactivated FBS, 10 mM HEPES, 1× penicillin/streptomycin, 0.5 mg/mL geneticin (Gibco, cat #10131-035) and 0.25 mg/mL hygromycin B (Invitrogen, cat #10687010). On the assay day, cell medium was removed and 100 nM SNAP-Lumi-Tb reagent was added in Opti-MEM solution. The cells were incubated at 37° C. for 1 h. Cells were washed using a plate washer in assay buffer [1×HBSS (10× Gibco, cat #14065-056), 20 mM Hepes (Gibco, cat #15630-080), 1 mM CaCl2 (Fluka, cat #21114-1L), 1 mM MgCl2 (Ambion, cat #AM9530G) pH7.4], and 20 μL buffer with 0.1% BSA was added to each well. After leaving cells to equilibrate for […] at 37° C., 10 μL of Fluorescein (sodium salt, Sigma, cat #F6377, diluted in buffer) was added at 25 μM final concentration. To generate triplicate dose response curves, compounds were serially diluted 3-fold in assay buffer, then added to the cell assay plate to a final volume of 40 μL and final top concentrations starting at 30 μM. In the same plate and assay buffer as the tested compounds, a GLP1 (7-36) peptide (Bachem, cat #H-6795) control curve was included at a final top concentration of 1 μM in order to establish EC100. EC0 wells with buffer only were also included. The plate FRET fluorescence was measured immediately using a Perkin Elmer Envision with LANCE/DELFIA D400 single mirror, excitation filter X320, and emission filters M615_203 (donor emission) and M515 (acceptor emission), and then measured every 30 min. […] Plates were kept at 37° C. between reads. Data was expressed as the ratio of donor/acceptor emissions using Microsoft Excel and plotted in GraphPad Prism. In order to determine EC50 and Emax for internalization, data was calculated and expressed as percent of the GLP1 (7-36) EC100 control wells: [(sample signal−mean EC0 signal)/(mean EC100 of GLP1 (7-36) signal−mean EC0 signal)]*100 using Microsoft Excel. Curve fitting for EC50 determinations was performed using GraphPad Prism. The 4-parameter logistic model, Hill slope was used:
where Y is the functional response; X is the compound concentration; bottom is A0 or the minimum value (at 0 dose); top is Ainf or the maximum value (at infinite dose); EC50 is the point of inflection (i.e. the point on the sigmoid shaped curve halfway between A0 and Ainf). […]

Chain of human GLP1R (P43220 24-463): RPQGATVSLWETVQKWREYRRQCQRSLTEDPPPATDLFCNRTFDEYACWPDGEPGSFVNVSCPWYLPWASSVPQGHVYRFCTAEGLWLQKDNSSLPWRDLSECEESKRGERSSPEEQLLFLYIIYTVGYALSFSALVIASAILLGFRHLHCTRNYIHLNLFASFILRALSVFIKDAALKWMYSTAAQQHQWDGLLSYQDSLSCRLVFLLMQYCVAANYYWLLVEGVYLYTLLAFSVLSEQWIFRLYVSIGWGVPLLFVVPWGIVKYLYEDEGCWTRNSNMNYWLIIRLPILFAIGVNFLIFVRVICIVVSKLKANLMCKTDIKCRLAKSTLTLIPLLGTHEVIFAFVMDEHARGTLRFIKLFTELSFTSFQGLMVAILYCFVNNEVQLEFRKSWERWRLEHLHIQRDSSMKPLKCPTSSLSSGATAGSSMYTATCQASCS

`Cc1c(-c2ccc(C(=O)O)o2)nc(CN2CCC(c3cccc4c3O[C@@](C)(c3ccc(Cl)cc3F)O4)CC2)n1C[C@@H]1CCO1` [Compound C-24, 5-(2-((4-((S)-2-(4-chloro-2-fluorophenyl)-2-methylbenzo[d][1,3]dioxol-4-yl)piperidin-1-yl)methyl)-5-methyl-1-(((S)-oxetan-2-yl)methyl)-1H-imidazol-4-yl)furan-2-carboxylic acid] showed an EC50 (top concentration 30 μM) of 490 nM and an Emax (relative to GLP1(7-36)) of 19%.
